Experimental data: US10669272B2, “Substituted naphthyridinone compounds useful as T cell activators” (BRISTOL-MYERS SQUIBB COMPANY, priority 2018, dated 2020)
Like-named read-outs stand apart in the source and are kept apart here.

Tests used:
[1] = test system: Human venous whole blood; assay: Human whole blood IFN-γ assay; assay type: cell-based; details: human whole blood, read-out: INFg Whole Blood Normalized Agonist EC50;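 further: blood from healthy donors exposed to compound for 1 h before stimulation with anti-CD3 and anti-CD28 at 1 µg/mL each, IFN-γ quantified in supernatant by AlphaLISA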
Experimental: Human Whole Blood IFN-γ Assay
Human venous whole blood (22.5 μL per well), obtained from healthy donors, was pre-treated with compounds for one hour at 37° C. in a humidified 95% air/5% CO2 incubator. The blood was stimulated with 2.5 μL anti-human CD3 and anti-CD28 mAb at a final concentration of 1 μg/mL each for 24 hours at 37° C. IFN-γ in the supernatants was measured using AlphLISA kit (Cat # AL217).

[2] = biological target: T1, human DGKα (Homo sapiens, UniProt P23743); assay: DGKα LIPGLO assay (extruded liposome substrate), in vitro DGK inhibition; assay type: biochemical; details: read-out: DGKa LIPGLO IC50
T1 construct: TVMV protease cleavage site (C); Hexa-His (C); made in house; host or cells: Sf9 insect cells (baculovirus, Bac-to-Bac)

[3] = biological target: T2, human DGKζ (Homo sapiens, UniProt Q13574); assay: DGKζ LIPGLO assay (extruded liposome substrate), in vitro DGK inhibition; assay type: biochemical; details: read-out: DGKz LIPGLO IC50
T2 construct: TVMV protease cleavage site (C); Hexa-His (C); made in house; host or cells: Sf9 insect cells (baculovirus, Bac-to-Bac)

[4] = normalized to 3 μM reference compound with anti-CD3 plus anti-CD28 as 100% activation
[5] = anti-CD3 plus anti-CD28, 24 hours, 3 μM reference compound = 100% activation
[6] = Homo sapiens, 24 h, anti-CD3 plus anti-CD28, 24 hours, 3 μM reference compound = 100% activation
[7] = Homo sapiens, 24 h, normalized to 3 μM reference compound with anti-CD3 plus anti-CD28 as 100% activation

T1 sequence (P23743 with tags, fused parts or gaps): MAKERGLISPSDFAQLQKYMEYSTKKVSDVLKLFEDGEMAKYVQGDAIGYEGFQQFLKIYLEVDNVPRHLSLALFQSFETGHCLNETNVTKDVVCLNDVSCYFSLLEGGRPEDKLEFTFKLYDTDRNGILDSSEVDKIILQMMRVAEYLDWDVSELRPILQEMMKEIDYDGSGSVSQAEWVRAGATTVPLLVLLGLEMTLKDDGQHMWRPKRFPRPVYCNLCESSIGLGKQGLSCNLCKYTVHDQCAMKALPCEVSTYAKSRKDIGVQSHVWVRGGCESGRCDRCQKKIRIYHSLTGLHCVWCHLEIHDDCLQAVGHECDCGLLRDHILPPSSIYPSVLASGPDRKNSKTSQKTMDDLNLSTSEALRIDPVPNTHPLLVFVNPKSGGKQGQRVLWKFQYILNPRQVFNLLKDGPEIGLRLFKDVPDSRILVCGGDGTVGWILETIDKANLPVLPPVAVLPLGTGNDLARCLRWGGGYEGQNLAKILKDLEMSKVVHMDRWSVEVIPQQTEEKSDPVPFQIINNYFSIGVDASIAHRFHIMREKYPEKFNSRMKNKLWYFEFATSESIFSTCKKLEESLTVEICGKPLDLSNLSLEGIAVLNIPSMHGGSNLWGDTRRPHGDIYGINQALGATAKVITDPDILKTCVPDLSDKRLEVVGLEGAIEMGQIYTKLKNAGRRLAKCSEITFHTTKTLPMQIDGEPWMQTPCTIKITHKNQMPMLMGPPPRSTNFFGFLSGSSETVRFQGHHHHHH
T2 sequence (Q13574 with tags, fused parts or gaps isoform Q13574-4): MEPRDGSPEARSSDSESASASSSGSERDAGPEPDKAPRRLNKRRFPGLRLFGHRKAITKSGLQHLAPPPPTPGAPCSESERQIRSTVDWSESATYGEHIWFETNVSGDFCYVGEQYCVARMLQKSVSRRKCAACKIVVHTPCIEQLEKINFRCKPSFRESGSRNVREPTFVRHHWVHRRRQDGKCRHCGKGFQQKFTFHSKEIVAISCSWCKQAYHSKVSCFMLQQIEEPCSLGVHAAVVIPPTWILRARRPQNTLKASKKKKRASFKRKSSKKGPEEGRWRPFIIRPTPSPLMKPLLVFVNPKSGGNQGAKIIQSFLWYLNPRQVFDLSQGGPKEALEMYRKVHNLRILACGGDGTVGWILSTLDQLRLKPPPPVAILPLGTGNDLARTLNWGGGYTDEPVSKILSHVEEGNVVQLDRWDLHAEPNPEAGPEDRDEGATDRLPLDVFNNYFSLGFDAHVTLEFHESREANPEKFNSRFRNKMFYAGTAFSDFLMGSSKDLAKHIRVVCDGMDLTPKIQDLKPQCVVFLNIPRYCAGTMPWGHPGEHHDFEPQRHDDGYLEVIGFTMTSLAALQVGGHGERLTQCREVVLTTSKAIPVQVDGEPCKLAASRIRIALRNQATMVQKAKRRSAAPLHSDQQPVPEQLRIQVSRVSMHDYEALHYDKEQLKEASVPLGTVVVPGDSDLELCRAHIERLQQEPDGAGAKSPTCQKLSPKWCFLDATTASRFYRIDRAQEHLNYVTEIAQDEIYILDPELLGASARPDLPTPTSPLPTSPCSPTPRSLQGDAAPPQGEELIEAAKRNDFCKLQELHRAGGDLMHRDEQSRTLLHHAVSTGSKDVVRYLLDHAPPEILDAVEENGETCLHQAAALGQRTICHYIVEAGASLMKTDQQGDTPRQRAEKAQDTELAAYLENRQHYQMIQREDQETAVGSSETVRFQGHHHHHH

## CC(c1cc(C(C)(C)C)on1)N1C[C@H](C)N(c2cc(=O)n(C)c3ccc(C#N)nc23)C[C@H]1C (single isomer, unassigned) [Example 1284]
[1]; [4]
  EC50: 2800 nM
[2]; liposome (LIPGLO) assay
  IC50: 760 nM

## CC[C@H]1CN(C(C)c2ccc(OC)cc2)[C@H](CC)CN1c1cc(=O)n(C)c2ccc(C#N)nc12 (single isomer, unassigned) [Example 1366]
[3]; liposome (LIPGLO) assay
  IC50: 15 nM
[1]; [4]
  EC50: 11 nM
[2]; liposome (LIPGLO) assay
  IC50: 24 nM

## C[C@@H]1CN(c2c(C#N)c(=O)n(C)c3ccc(C#N)nc23)[C@@H](C)CN1C(c1ccc(F)cc1)c1ccc(F)cn1 (stereo partly shown) [Example 827]
[3]; DGKζ liposome (LIPGLO) assay
  IC50: 10000 nM
[1]; [5]
  EC50: 1300 nM
[2]; DGKα liposome (LIPGLO) assay
  IC50: 4400 nM

## Cc1cc(CN2CCN(c3c(C#N)c(=O)n(C)c4ccc(C#N)nc34)C[C@H]2C)ccc1F [Example 995]
[3]; DGKζ liposome (LIPGLO) assay
  IC50: 5600 nM
[1]; [6]
  EC50: 2500 nM
[2]; DGKα liposome (LIPGLO) assay
  IC50: 3200 nM

## CC[C@@H]1CN(c2cc(=O)n(C)c3ccc(C#N)nc23)[C@@H](C)CN1Cc1ccc(C(F)(F)F)cc1C(F)(F)F [Example 1197]
[3]; liposome (LIPGLO) assay
  IC50: 1600 nM
[1]; [7]
  EC50: 3500 nM
[2]; liposome (LIPGLO) assay
  IC50: 9500 nM

## CC(c1ccc(C#N)cc1F)N1C[C@H](C)N(c2cc(=O)n(C)c3ccc(C#N)nc23)C[C@H]1C (single isomer, unassigned) [Example 1226]
[3]; liposome (LIPGLO) assay
  IC50: 1700 nM
[1]; [4]
  EC50: 8700 nM
[2]; liposome (LIPGLO) assay
  IC50: 750 nM

## C[C@@H]1CN(c2cc(=O)n(C)c3ccc(C#N)nc23)[C@@H](C)CN1C(c1ccc(F)cc1)c1nnnn1C(C)(C)C (single isomer, unassigned) [Example 771]
[3]; DGKζ liposome (LIPGLO) assay
  IC50: 8500 nM
[1]; [5]
  EC50: 10000 nM
[2]; DGKα liposome (LIPGLO) assay
  IC50: 6300 nM

## Cc1noc(C(c2ccc(F)cc2)N2C[C@H](C)N(c3cc(=O)n(C)c4ccc(C#N)nc34)C[C@H]2C)n1 (stereo partly shown) [Example 745]
[3]; DGKζ liposome (LIPGLO) assay
  IC50: 470 nM
[1]; [6]
  EC50: 1100 nM
[2]; DGKα liposome (LIPGLO) assay
  IC50: 380 nM

## CC(c1ccc(P(C)(C)=O)cc1)N1C[C@H](C)N(c2cc(=O)n(C)c3ccc(C#N)nc23)C[C@H]1C (stereo partly shown) [Example 1290]
[3]; liposome (LIPGLO) assay
  IC50: 43000 nM
[1]; [7]
  EC50: 20000 nM
[2]; liposome (LIPGLO) assay
  IC50: 170000 nM

## CC(c1ccc(F)c(F)c1)N1CCN(c2c(C#N)c(=O)n(C)c3ccc(C#N)nc23)C[C@H]1C (stereo partly shown) [Example 956]
[3]; DGKζ liposome (LIPGLO) assay
  IC50: 7500 nM
[1]; [6]
  EC50: 4000 nM
[2]; DGKα liposome (LIPGLO) assay
  IC50: 780 nM

## COCC(F)(F)C(c1ccc(F)cc1)N1C[C@H](C)N(c2cc(=O)n(C)c3ccc(C#N)nc23)C[C@H]1C (single isomer, unassigned) [Example 1313]
[3]; liposome (LIPGLO) assay
  IC50: 5300 nM
[1]; [7]
  EC50: 4800 nM
[2]; liposome (LIPGLO) assay
  IC50: 2200 nM

## CCc1ccc(C(c2ccc(F)cc2)N2C[C@H](C)N(c3c(C#N)c(=O)n(C)c4ccc(C#N)nc34)C[C@H]2C)cc1 (single isomer, unassigned) [Example 812]
[3]; DGKζ liposome (LIPGLO) assay
  IC50: 510 nM
[1]; [5]
  EC50: 2800 nM
[2]; DGKα liposome (LIPGLO) assay
  IC50: 17000 nM

## CCC(c1ccc(OC(F)(F)F)cc1F)N1C[C@H](CC)N(c2cc(=O)n(C)c3ccc(C#N)nc23)C[C@H]1C (single isomer, unassigned) [Example 1378]
[3]; liposome (LIPGLO) assay
  IC50: 2800 nM
[1]; [4]
  EC50: 9500 nM
[2]; liposome (LIPGLO) assay
  IC50: 1400 nM

## Cc1ccc(C(c2ccc(C)c(Cl)c2)N2C[C@H](C)N(c3cc(=O)n(C)c4ccc(C#N)nc34)C[C@H]2C)nc1 (single isomer, unassigned) [Example 380]
[3]; liposome (LIPGLO) assay
  IC50: 1600 nM
[1]; [4]
  EC50: 630 nM
[2]; liposome (LIPGLO) assay
  IC50: 3100 nM

## C[C@@H]1CN(c2c(C#N)c(=O)n(C)c3ccc(C#N)nc23)[C@@H](C)CN1C(c1ccc(F)cc1)c1cc(C(C)(C)C)on1 (single isomer, unassigned) [Example 867]
[3]; DGKζ liposome (LIPGLO) assay
  IC50: 7900 nM
[1]; [5]
  EC50: 20000 nM
[2]; DGKα liposome (LIPGLO) assay
  IC50: > 250000 nM

## COCCOC[C@@H]1CN(c2cc(=O)n(C)c3ccc(C#N)nc23)[C@@H](C)CN1C(C)c1ccc(OC(F)(F)F)cc1 (single isomer, unassigned) [Example 1405]
[3]; liposome (LIPGLO) assay
  IC50: 57 nM
[1]; [7]
  EC50: 480 nM
[2]; liposome (LIPGLO) assay
  IC50: 960 nM

## C[C@@H]1CN(c2c(C#N)c(=O)n(C)c3ccc(C#N)nc23)CCN1Cc1ccccc1OC(F)(F)F [Example 999]
[1]; [6]
  EC50: 17000 nM
[2]; DGKα liposome (LIPGLO) assay
  IC50: 270 nM

## Cc1oc(-c2cccc(F)c2)nc1CN1C[C@H](C)N(c2cc(=O)n(C)c3ccc(C#N)nc23)C[C@H]1C [Example 1430]
[1]; [4]
  EC50: 7000 nM
[2]; liposome (LIPGLO) assay
  IC50: 21000 nM

## C[C@@H]1CN(c2c(F)c(=O)n(C)c3ccc(C#N)nc23)[C@@H](C)CN1C(c1ccc(Cl)cc1)c1ccc(OC(F)(F)F)cc1 (stereo partly drawn) [Example 323, 8-((2S,5R)-4-((4-chlorophenyl)(4-(trifluoromethoxy)phenyl)methyl)-2,5-dimethylpiperazin-1-yl)-7-fluoro-5-methyl-6-oxo-5,6-dihydro-1,5-naphthyridine-2-carbonitrile]
[1]; [7]
  EC50: 5700 nM
[2]; liposome (LIPGLO) assay
  IC50: 2100 nM

## C[C@@H]1CN(c2cc(=O)n(C)c3ccc(C#N)nc23)[C@@H](C)CN1C(c1ccc(F)cc1)c1ccccc1P(C)(C)=O (single isomer, unassigned) [Example 1288]
[1]; [7]
  EC50: 8800 nM
[2]; liposome (LIPGLO) assay
  IC50: 290000 nM

## C[C@@H]1CN(c2cc(=O)n(C)c3ccc(C#N)nc23)[C@@H](C)CN1C(c1ccc(F)cc1)c1ccccc1P(C)(C)=O (stereo partly drawn) [Example 1287, 8-((2S,5R)-4-((2-(dimethylphosphoryl)phenyl)(4-fluorophenyl)methyl)-2,5-dimethylpiperazin-1-yl)-5-methyl-6-oxo-5,6-dihydro-1,5-naphthyridine-2-carbonitrile]
[3]; liposome (LIPGLO) assay
  IC50: 3700 nM
[1]; [7]
  EC50: 8400 nM

## CC[C@H]1CN(C(c2ccc(F)cc2)c2ccccn2)[C@H](CC)CN1c1cc(=O)n(C)c2ccc(C#N)nc12 (single isomer, unassigned) [Example 1044]
[3]; liposome (LIPGLO) assay
  IC50: 70 nM
[1]; [4]
  EC50: 350 nM

## CC[C@@H]1CN(c2cc(=O)n(C)c3ccc(C#N)nc23)[C@@H](C)CN1C(c1ccc(Cl)cc1)c1ccc(F)cn1 (stereo partly shown) [Example 1110]
[3]; liposome (LIPGLO) assay
  IC50: 160 nM
[1]; [4]
  EC50: 1300 nM

## COC[C@@H]1CN(c2cc(=O)n(C)c3ccc(C#N)nc23)[C@@H](C)CN1C(c1ccc(F)cc1)c1nc(C2CC2)cs1 (single isomer, unassigned) [Example 1395]
[3]; liposome (LIPGLO) assay
  IC50: 70 nM
[1]; [4]
  EC50: 190 nM

## Cc1cccc(C(c2ccc(F)cc2)N2CCN(c3c(C#N)c(=O)n(C)c4ccc(C#N)nc34)C[C@H]2C)c1 (stereo partly shown) [Example 916]
[3]; DGKζ liposome (LIPGLO) assay
  IC50: 450 nM
[1]; [5]
  EC50: 1900 nM

## CC[C@@H]1CN(c2cc(=O)n(C)c3ccc(C#N)nc23)[C@@H](C)CN1Cc1ccc(OC(F)(F)F)cc1F [Example 1347]
[3]; liposome (LIPGLO) assay
  IC50: 170 nM
[1]; [7]
  EC50: 730 nM

## CC(c1ccc(C(F)(F)F)cn1)N1C[C@H](C)N(c2cc(=O)n(C)c3ccc(C#N)nc23)C[C@H]1C (single isomer, unassigned) [Example 642]
[3]; liposome (LIPGLO) assay
  IC50: 190 nM
[1]; [7]
  EC50: 3300 nM

## CC(c1ccc(Cl)cc1F)N1C[C@H](C)N(c2cc(=O)n(C)c3ccc(C#N)nc23)C[C@H]1C (stereo partly shown) [Example 1230]
[3]; liposome (LIPGLO) assay
  IC50: 160 nM
[1]; [7]
  EC50: 100 nM

## CC(c1ccc(C(F)(F)F)cc1)N1CCN(c2c(C#N)c(=O)n(C)c3ccc(C#N)nc23)C[C@H]1C (single isomer, unassigned) [Example 961]
[1]; [5]
  EC50: 20000 nM
[2]; DGKα liposome (LIPGLO) assay
  IC50: 1500 nM

## CC(c1csc(C(F)(F)F)n1)N1C[C@H](C)N(c2cc(=O)n(C)c3ccc(C#N)nc23)C[C@H]1C (single isomer, unassigned) [Example 1274]
[1]; [4]
  EC50: 3300 nM
[2]; liposome (LIPGLO) assay
  IC50: 590 nM

## Cc1oc(-c2cccc(F)c2)nc1CN1C[C@H](C)N(c2cc(=O)n(C)c3ccc(C#N)nc23)C[C@H]1C [Example 1429]
[1]; [4]
  EC50: 20000 nM
[2]; liposome (LIPGLO) assay
  IC50: 48000 nM

## CC(c1cc(OC(F)(F)F)ccc1F)N1C[C@H](C)N(c2cc(=O)n(C)c3ccc(C#N)nc23)C[C@H]1C (stereo partly shown) [Example 1202]
[1]; [4]
  EC50: 1300 nM
[2]; liposome (LIPGLO) assay
  IC50: 2200 nM
